Drawing on US8779157B2, “MGLUR4 allosteric potentiators, compositions, and methods of treating neurological dysfunction” (Vanderbilt University, priority 2009, dated 2014), this text covers EC50 for 25 compounds.

In this assay the target is mGluR4 (UniProt Q14833). Briefly: mGluR4 potentiation assay (fluorescence, Ca2+ or thallium/GIRK readout; EC20 agonist). The format is cell-based, human / rat. Particulars: half maximal effective concentration for mGluR4 potentiation; species of receptor not given. In outline: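 Human mGluR4 in CHO cells (Ca2+ dye) or rat mGluR4 with GIRK in HEK cells (thallium dye), read kinetically. Potentiation EC50 and maximum fitted from compound concentration-response at fixed agonist.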

For `O=C(Nc1ccc(N2C(=O)C3CSCCN3C2=O)c(Cl)c1)c1cscn1` (stereo not shown) [Example 1.3.43, N-(3-chloro-4-(1,3-dioxodihydro-1H-imidazo[5,1-c][1,4]thiazin-2(3H,8H,8aH)-yl)phenyl)thiazole-4-carboxamide], the EC50 turned out to be 3.76 µM.
On to `CS(=O)(=O)N1CCN2C(=O)N(c3ccc(NC(=O)c4ccccn4)cc3Cl)C(=O)C2C1` (stereo not shown) [Example 1.3.47, N-(3-chloro-4-(7-(methylsulfonyl)-1,3-dioxotetrahydroimidazo[1,5-a]pyrazin-2(1H,3H,5H)-yl)phenyl)picolinamide], for which the EC50 came to 4.71 µM.
As for `O=C(Nc1ccc(N2C(=O)NC3(CCCCC3)C2=O)c(C(F)(F)F)c1)c1ccccn1` [Example 1.3.50, N-(4-(2,4-dioxo-1,3-diazaspiro[4.5]decan-3-yl)-3-(trifluoromethyl)phenyl)picolinamide], the EC50 is 0.454 µM.
As for `O=C(Nc1ccc(N2C(=O)C3COCCN3C2=O)c(Cl)c1)c1ncccc1F` (stereo not shown) [Example 1.3.22, N-(3-Chloro-4-(1,3-dioxodihydro-1H-imidazo[5,1-c][1,4]oxazin-2(3H,8H,8aH)-yl)phenyl)-3-fluoropicolinamide], the 50% effective concentration (EC50) was determined as 5.82 µM.
As to `CC12CCCCN1C(=S)N(c1ccc(NC(=O)c3cccc(Cl)n3)cc1Cl)C2=O` (stereo not shown) [Example 1.3.93, 6-chloro-N-(3-chloro-4-(8a-methyl-1-oxo-3-thioxohexahydroimidazo[1,5-a]pyridin-2(3H)-yl)phenyl)picolinamide], the half-maximal effective concentration (EC50) came to 2.4 µM.
Then `O=C(Nc1ccc(N2C(=O)C3CCCCN3C2=O)c(Cl)c1)c1ccncn1` (stereo not shown) [Example 1.3.6, N-(3-Chloro-4-(1,3-dioxotetrahydroimidazo[1,5-a]pyridin-2(1H,3H,5H)-yl)phenyl)pyrimidine-4-carboxamide], with 2.58 µM; and `COc1cc(NC(=O)c2ccccn2)ccc1N1C(=O)N[C@@](C)(Cc2ccc(F)cc2)C1=O` [Example 1.3.63, (S)-N-(4-(4-(4-fluorobenzyl)-4-methyl-2,5-dioxoimidazolidin-1-yl)-3-methoxyphenyl)picolinamide], with 1.04 µM; and `O=C(Nc1ccc(N2C(=O)C3CN(C4CCCCC4)CCN3C2=O)c(Cl)c1)c1ccccn1` (stereo not shown) [Example 1.3.71, N-(3-chloro-4-(7-cyclohexyl-1,3-dioxohexahydroimidazo[1,5-a]pyrazin-2(3H)-yl)phenyl)picolinamide], with 2.23 µM.
Then `CC12CCCCN1C(=O)N(c1ccc(NC(=O)c3nccs3)cc1Cl)C2=O` (stereo not shown) [Example 1.3.86, N-(3-chloro-4-(8a-methyl-1,3-dioxohexahydroimidazo[1,5-a]pyridin-2(3H)-yl)phenyl)thiazole-2-carboxamide], with 1.63 µM; and `O=C(Nc1ccc(N2C(=O)C3COCCN3C2=O)c(Cl)c1)c1cscn1` (stereo not shown) [Example 1.3.26, N-(3-Chloro-4-(1,3-dioxodihydro-1H-imidazo[5,1-c][1,4]oxazin-2(3H,8H,8aH)-yl)phenyl)thiazole-4-carboxamide], with 6.11 µM; and `CC(C)(C)C(=O)N1CCN2C(=O)N(c3ccc(NC(=O)c4ccccn4)cc3Cl)C(=O)C2C1` (stereo not shown) [Example 1.3.73, N-(3-chloro-4-(1,3-dioxo-7-pivaloylhexahydroimidazo[1,5-a]pyrazin-2(3H)-yl)phenyl)picolinamide], with 1.07 µM.
To `O=C(Nc1ccc(N2C(=O)C3COCCN3C2=O)c(Cl)c1)c1ncc(F)cc1F` (stereo not shown) [Example 1.3.27, N-(3-Chloro-4-(1,3-dioxodihydro-1H-imidazo[5,1-c][1,4]oxazin-2(3H,8H,8aH)-yl)phenyl)-3,5-difluoropicolinamide] belongs 2.93 µM; to `C[C@@]1(Cc2ccc(F)cc2)NC(=O)N(c2ccc(NC(=O)c3ccccn3)cc2Cl)C1=O` [Example 1.3.61, (S)-N-(3-chloro-4-(4-(4-fluorobenzyl)-4-methyl-2,5-dioxoimidazolidin-1-yl)phenyl)picolinamide], 0.335 µM.
Take `O=C(Nc1ccc(N2C(=O)C3CCCCN3C2=S)c(Cl)c1)c1ccc(Cl)o1` (stereo not shown) [Example 1.3.82, 5-chloro-N-(3-chloro-4-(1-oxo-3-thioxohexahydroimidazo[1,5-a]pyridin-2(3H)-yl)phenyl)furan-2-carboxamide]: the concentration giving a half-maximal response (EC50) came out at 2.85 µM.
`CC12CCCCN1C(=O)N(c1ccc(NC(=O)c3cccc(Cl)n3)cc1Cl)C2=O` (stereo not shown) [Example 1.3.85, 6-chloro-N-(3-chloro-4-(8a-methyl-1,3-dioxohexahydroimidazo[1,5-a]pyridin-2(3H)-yl)phenyl)picolinamide]: the EC50 stood at 0.864 µM.
For `CC(=O)N1CCN2C(=O)N(c3ccc(NC(=O)c4ccccn4)cc3Cl)C(=O)C2C1` (stereo not shown) [Example 1.3.72, N-(4-(7-acetyl-1,3-dioxohexahydroimidazo[1,5-a]pyrazin-2(3H)-yl)-3-chlorophenyl)picolinamide], the EC50 turned out to be 4.51 µM.
To `CC12CCCCN1C(=O)N(c1ccc(NC(=O)c3ccc(Cl)o3)cc1Cl)C2=O` (stereo not shown) [Example 1.3.89, 5-chloro-N-(3-chloro-4-(8a-methyl-1,3-dioxohexahydroimidazo[1,5-a]pyridin-2(3H)-yl)phenyl)furan-2-carboxamide] belongs 4.67 µM; to `O=C(Nc1ccc(N2C(=O)C3CCCCN3C2=S)c(Cl)c1)c1ccsc1` (stereo not shown) [Example 1.3.78, N-(3-chloro-4-(1-oxo-3-thioxohexahydroimidazo[1,5-a]pyridin-2(3H)-yl)phenyl)thiophene-3-carboxamide], 1.79 µM.
Take `C[C@@]1(Cc2ccccc2)NC(=O)N(c2ccc(NC(=O)c3cccc(F)n3)cc2Cl)C1=O` [Example 1.3.69, (S)-N-(4-(4-benzyl-4-methyl-2,5-dioxoimidazolidin-1-yl)-3-chlorophenyl)-6-fluoropicolinamide]: the 50% effective concentration (EC50) is 1.63 µM.
`CC12CCCCN1C(=S)N(c1ccc(NC(=O)c3ncccc3F)cc1Cl)C2=O` (stereo not shown) [Example 1.3.99, N-(3-chloro-4-(8a-methyl-1-oxo-3-thioxohexahydroimidazo[1,5-a]pyridin-2(3H)-yl)phenyl)-3-fluoropicolinamide]: the 50% effective concentration (EC50) was found to be 0.65 µM.
To `CC(C)N1C(=O)N(c2ccc(NC(=O)c3ccccn3)cc2Cl)C(=O)[C@@H]1C(C)(C)C` [Example 1.3.58, (S)-N-(4-(4-(tert-butyl)-3-isopropyl-2,5-dioxoimidazolidin-1-yl)-3-chlorophenyl)picolinamide] belongs 0.2 µM; to `O=C(Nc1ccc(N2C(=O)NC3(CCC3)C2=O)c(Cl)c1)c1ccccn1` [Example 1.3.14, N-(3-chloro-4-(6,8-dioxo-5,7-diazaspiro[3.4]octan-7-yl)phenyl)picolinamide], 1.28 µM; to `O=C(Nc1ccc(N2C(=O)C3CCCCN3C2=S)c(Cl)c1)c1cccc(F)n1` (stereo not shown) [Example 1.3.83, N-(3-chloro-4-(1-oxo-3-thioxohexahydroimidazo[1,5-a]pyridin-2(3H)-yl)phenyl)-6-fluoropicolinamide], 0.354 µM.
To `O=C(Nc1ccc(N2C(=O)C3CS(=O)(=O)CCN3C2=O)c(Cl)c1)c1ccccn1` (stereo not shown) [Example 1.3.41, N-(3-chloro-4-(1,3-dioxodihydro-1H-imidazo[5,1-c][1,4]dioxothiazin-2(3H,8H,8aH)-yl)phenyl)picolinamide] belongs 3.03 µM.
Regarding `CC12CCCCN1C(=S)N(c1ccc(NC(=O)c3ncc(F)cc3F)cc1Cl)C2=O` (stereo not shown) [Example 1.3.96, N-(3-chloro-4-(8a-methyl-1-oxo-3-thioxohexahydroimidazo[1,5-a]pyridin-2(3H)-yl)phenyl)-3,5-difluoropicolinamide], the 50% effective concentration (EC50) worked out at 0.295 µM.

The EC50 is the concentration giving half of the maximal effect.
